Literature values, collected in patent US8835453B2, “Sustained release implant for granisetron” (Development Center for Biotechnology, priority 2008, dated 2014).
Where a name gives a salt, the structure may show the parent alone.

Conditions: water and normal saline at 20° C.

## CN1C2CCCC1CC(NC(=O)c1nn(C)c3ccccc13)C2 (stereo not drawn) [Granisetron hydrochloride, endo-N-(9-methyl-9-azabicyclo[3.3.1]non-3-yl)-1-methyl-1H-indazole-3-carboxamide]
  solubility: soluble
